Data set [1] is described as follows: Average particle size of the nanoparticles in the pharmaceutical composition. The data set is classed as physicochemical. The following applies: 1 ml ethanol solution into ≈35 ml. The text has this:
(§1) This could be exemplified with respect to pharmaceutical compositions of two poorly water-soluble anticancer drugs or compounds, viz.

Data set [2] is described as follows: Clarity of the solution of the nanoparticulate composition. The data set is classed as physicochemical.
Text: as §1

A short description of data set [3]: Stability: hours the drug remains in solution without precipitation.
Text: By reference to the term “stability”, it is to be construed to mean the period, counted in hours, wherein the poorly water-soluble drug or compound remains in solution in the pharmaceutical composition comprising the same, without any precipitation of the drug or compound from therein.
Where [4] appears, read: 1 ml ethanol solution into ≈35 ml, needle 0.305 mm, addition 3 Secs.
The mark [5] stands for this setting: 1 ml ethanol solution into ≈35 ml, needle 1.270 mm, addition 2 Secs.
The mark [6] stands for this setting: 1 ml ethanol solution into ≈35 ml, needle 1.270 mm, addition 6 Secs.
The mark [7] stands for this setting: 15 ml ethanol solution into ≈500 ml, needle 0.330 mm, addition 18 Secs.
Setting [8] is: 15 ml ethanol solution into ≈500 ml, needle 0.711 mm, addition 10 Secs.

Bounds are passed on as bounds.

For the molecule `C=C(C)[C@@H]1CC[C@]2(C(=O)O)CC[C@]3(C)C(CCC4[C@@]5(C)Cc6c([nH]c7ccc(Cl)cc67)C(C)(C)C5CC[C@]43C)C12` (stereo partly drawn) [DRF-4012], the “Average Particle Size (nm)” value was found to be 200 nm in data set [1] (needle 0.305 mm, addition 6 Secs); 90 nm in data set [1] (needle 0.465 mm, addition 2 Secs); 200 nm in data set [1] (needle 0.467 mm, addition 6 Secs); 100 nm in data set [1] (needle 0.711 mm, addition 2 Secs); 240 nm in data set [1] (needle 0.711 mm, addition 6 Secs); 130 nm in data set [1] (needle 1.270 mm, addition 2 Secs). The “Average Particle Size (nm)” value came out at 8100 nm in data set [1] (needle 1.270 mm, addition 6 Secs) and 70 nm in data set [1] (nanoparticles with the polymer, needle 0.305 mm, addition 3 Secs). Besides, the “Clarity Of The Solution” value in data set [2] (setting [4]) was “Clear”; in data set [2] (setting [5]), “Opalescent”; in data set [2] (setting [6]), “Milky”.
`CC(=O)O[C@H]1C(=O)[C@@]2(C)[C@H]([C@H](OC(=O)c3ccccc3)[C@]3(O)C[C@H](OC(=O)[C@H](O)[C@@H](NC(=O)c4ccccc4)c4ccccc4)C(C)=C1C3(C)C)[C@]1(OC(C)=O)CO[C@@H]1C[C@@H]2O` [Paclitaxel]: the “Stability” value was more than 24 h in data set [3] (setting [4]); less than 4 h in data set [3] (1 ml ethanol solution into ≈35 ml, needle 0.305 mm, addition 6 Secs); 20 h in data set [3] (1 ml ethanol solution into ≈35 ml, needle 0.467 mm, addition 2 Secs); less than 2 h in data set [3] (1 ml ethanol solution into ≈35 ml, needle 0.467 mm, addition 6 Secs); less than 10 h in data set [3] (1 ml ethanol solution into ≈35 ml, needle 0.711 mm, addition 2 Secs); less than 2 h in data set [3] (1 ml ethanol solution into ≈35 ml, needle 0.711 mm, addition 6 Secs). Moreover, the “Stability” value is less than 4 h in data set [3] (setting [5]); less than 0.5 h in data set [3] (setting [6]); 20 h in data set [3] (setting [7]); more than 24 h in data set [3] (setting [8]); less than 15 h in data set [3] (15 ml ethanol solution into ≈500 ml, needle 0.711 mm, addition 15 Secs). Besides, the “Clarity Of The Solution” value is “Clear” in data set [2] (setting [4]); “Opalescent” in data set [2] (setting [5]); “Milky” in data set [2] (setting [6]); “Clear” in data set [2] (setting [7]); “Clear” in data set [2] (setting [8]).

These data come from patent publication US8927023B2, “Biocompatible, non-biodegradable, non-toxic polymer useful for nanoparticle pharmaceutical compositions” (Fresenius Kabi Oncology Limited, priority 2005, dated 2015).
